Assay results taken from patent US10702592B2, “Peptides and combination of peptides for use in immunotherapy against NHL and other cancers” (Immatics Biotechnologies GmbH, priority 2016, dated 2020).

How the values were obtained:
[1] = tested on: CD8+ T cells; assay: In vitro T-cell priming immunogenicity assay (aAPC with pMHC and anti-CD28, multimer staining); assay type: cell-based, human; conditions: HLA-A*02 restricted peptides; percentage of positive wells and donors (among evaluable)
Description: In order to obtain information regarding the immunogenicity of the TUMAPs of the present invention, the inventors performed investigations using an in vitro T-cell priming assay based on repeated stimulations of CD8+ T cells with artificial antigen presenting cells (aAPCs) loaded with peptide/MHC complexes and anti-CD28 antibody.
In order to perform in vitro stimulations by artificial antigen presenting cells loaded with peptide-MHC complex (pMHC) and anti-CD28 antibody, the inventors first isolated CD8+ T cells from fresh HLA-A*02 leukapheresis products via positive selection using CD8 microbeads (Miltenyi Biotec, Bergisch-Gladbach, Germany) of healthy donors obtained from the University clinics Mannheim, Germany, after informed consent.
PBMCs and isolated CD8+ lymphocytes were incubated in T-cell medium (TCM) until use consisting of RPMI-Glutamax (Invitrogen, Karlsruhe, Germany) supplemented with 10% heat inactivated human AB serum (PAN-Biotech, Aidenbach, Germany), 100 U/ml Penicillin/100 μg/ml Streptomycin (Cambrex, Cologne, Germany), 1 mM sodium pyruvate (CC Pro, Oberdorla, Germany), 20 μg/ml Gentamycin (Cambrex). 2.5 ng/ml IL-7 (PromoCell, Heidelberg, Germany) and 10 U/ml IL-2 (Novartis Pharma, Nurnberg, Germany) were also added to the TCM at this step.
Generation of pMHC/anti-CD28 coated beads, T-cell stimulations and readout was performed in a highly defined in vitro system using four different pMHC molecules per stimulation condition and 8 different pMHC molecules per readout condition.
The purified co-stimulatory mouse IgG2a anti human CD28 Ab 9.3 (Jung et al., 1987) was chemically biotinylated using Sulfo-N-hydroxysuccinimidobiotin as recommended by the manufacturer (Perbio, Bonn, Germany). Beads used were 5.6 μm diameter streptavidin coated polystyrene particles (Bangs Laboratories, Illinois, USA).
800.000 beads/200 μl were coated in 96-well plates in the presence of 4×12.5 ng different biotin-pMHC, washed and 600 ng biotin anti-CD28 were added subsequently in a volume of 200 μl. Stimulations were initiated in 96-well plates by co-incubating 1×10^6 CD8+ T cells with 2×10^5 washed coated beads in 200 μl TCM supplemented with 5 ng/ml IL-12 (PromoCell) for 3 days at 37° C. Half of the medium was then exchanged by fresh TCM supplemented with 80 U/ml IL-2 and incubating was continued for 4 days at 37° C. This stimulation cycle was performed for a total of three times. For the pMHC multimer readout using 8 different pMHC molecules per condition, a two-dimensional combinatorial coding approach was used as previously described (Andersen et al., 2012) with minor modifications encompassing coupling to 5 different fluorochromes. Finally, multimeric analyses were performed by staining the cells with Live/dead near IR dye (Invitrogen, Karlsruhe, Germany), CD8-FITC antibody clone SK1 (BD, Heidelberg, Germany) and fluorescent pMHC multimers. For analysis, a BD LSRII SORP cytometer equipped with appropriate lasers and filters was used. Peptide specific cells were calculated as percentage of total CD8+ cells. Evaluation of multimeric analysis was done using the FlowJo software (Tree Star, Oregon, USA). In vitro priming of specific multimer+CD8+ lymphocytes was detected by comparing to negative control stimulations.

[2] = molecular target: HLA-A*02:01 (Homo sapiens, UniProt P04439, D140Y/D185E/D98H/E176V/E277Q/G131W/G231S/I119V/I121R/I166T/I218V/L300P/L318F/N151K/N90K/P208A/P217A/Q86G/Q94H/R138H/R169H/T345S); assay: MHC binding assay (UV-ligand exchange, beta2m ELISA); conditions: binding to HLA-A*02:01, UV-ligand exchange
Method in brief: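 UV-exchange pMHC monomers, 100-fold diluted → streptavidin capture 1 h 37 °C → HRP anti-β2m 2 ug/ml 1 h 37 °C → TMB, A450. Yield from HLA-A*02:01/MLA-001 monomer standard curve, 15-500 ng/ml. Only stably bound peptides keep β2m-containing complexes intact.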

Row | Substance | Peptide exchange (MHC class I binding score, peptide exchange yield) [2] | Wells positive [%] [1]
1 | 73 (YLGEEYPEV; listed as Homo sapiens) [compound 73] | “+++” (≥50 = +++) | “+” (<20% = +)
2 | 74 (SLDLRPLEV; listed as Homo sapiens) [compound 74] | “++++” (≥75% = ++++) | “++” (20% - 49% = ++)
3 | 253 (YSDDDVPSV; listed as Homo sapiens) [compound 253] | “++++” (≥75% = ++++) | “+++” (50% - 69% = +++)
4 | 254 (FLYSETWNI; listed as Homo sapiens) [compound 254] | “++++” (≥75% = ++++) | “+” (<20% = +)
5 | 256 (ALQETPPQV; listed as Homo sapiens) [compound 256] | “+++” (≥50 = +++) | “+” (<20% = +)

The next lines start with results.

Row | Peptide exchange (MHC class I binding score, peptide exchange yield) [2] | Substance | Wells positive [%] [1]
6 | “+++” (≥50 = +++) | 258 (RIYPFLLMV; listed as Homo sapiens) [compound 258] | “++++” (≥70% = ++++)
7 | “++++” (≥75% = ++++) | 260 (RLDEAFDFV; listed as Homo sapiens) [compound 260] | “+” (<20% = +)
8 | “++++” (≥75% = ++++) | 261 (FLPETRIMTSV; listed as Homo sapiens) [compound 261] | “+” (<20% = +)
9 | “++++” (≥75% = ++++) | 262 (LMGPVVHEV; listed as Homo sapiens) [compound 262] | “++” (20% - 49% = ++)
